Earlier results as cited in patent US20070092568A1 (priority 2005, published 2007).
Counter-ions that a name gives are not always drawn.

Solubility in water: sparingly soluble in water
SMILES: COc1ccc2c3c1O[C@H]1C[C@@H](O)C=C[C@@]31CCN(C)C2 [Galantamine hydrobromide, (4aS,6R,8aS)-4a,5,9,10,11,12-hexahydro-3-methoxy-11-methyl-6H-benzofuro[3a,3,2-ef][2]benzazepin-6-ol]
